Test results as given in patent US7332279B2 (Glycozym APS, priority 1999, dated 2008).

Assays:
β3Gal-T1 = molecular target: T1, β3Gal-T1 (Homo sapiens, UniProt Q9Y5Z6); assay: Galactosyltransferase assay, recombinant β3Gal-T1, saccharide acceptors; assay type: biochemical
T1 construct: The kinetic properties were determined with partially purified, secreted forms of the enzymes; made in house; host or cells: baculovirus; Sf9 / High Five insect cells, medium
T1 sequence (Q9Y5Z6 27-326 limits assumed): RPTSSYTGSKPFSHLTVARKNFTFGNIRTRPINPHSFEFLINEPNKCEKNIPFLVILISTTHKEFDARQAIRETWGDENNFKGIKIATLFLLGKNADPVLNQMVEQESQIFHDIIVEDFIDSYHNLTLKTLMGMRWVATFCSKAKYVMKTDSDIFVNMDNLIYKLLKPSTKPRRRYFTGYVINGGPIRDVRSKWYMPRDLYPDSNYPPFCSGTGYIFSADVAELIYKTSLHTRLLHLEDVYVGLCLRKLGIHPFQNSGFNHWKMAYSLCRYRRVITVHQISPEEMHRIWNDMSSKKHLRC

β4Gal-T3 = molecular target: T2, β4Gal-T3 (Homo sapiens, UniProt O60512); assay: Galactosyltransferase assay, recombinant β4Gal-T3, saccharide acceptors; assay type: biochemical
T2 construct: The kinetic properties were determined with partially purified, secreted forms of the enzymes; made in house; host or cells: baculovirus; insect cells (Sf9 / High Five)
T2 sequence (O60512 32-393 limits assumed): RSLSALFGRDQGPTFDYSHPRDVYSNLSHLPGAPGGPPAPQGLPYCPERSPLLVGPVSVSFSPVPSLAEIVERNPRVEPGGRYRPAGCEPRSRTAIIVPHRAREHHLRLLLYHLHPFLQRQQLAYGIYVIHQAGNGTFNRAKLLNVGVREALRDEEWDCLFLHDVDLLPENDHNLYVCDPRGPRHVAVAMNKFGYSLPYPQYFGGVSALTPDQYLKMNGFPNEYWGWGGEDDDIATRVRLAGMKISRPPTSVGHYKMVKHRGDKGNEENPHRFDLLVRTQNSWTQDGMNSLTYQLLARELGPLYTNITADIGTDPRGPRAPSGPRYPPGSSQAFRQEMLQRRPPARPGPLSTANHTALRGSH
Description: (§1) An expression construct (pAcGP67-β3Gal-T5-sol) designed to exclude the hydrophobic transmembrane segment and to encode amino acid residues 25-310, was prepared by PCR using P1 genomic DNA, and the primer pair EBER1300 sol (5′-[…]) (SEQ ID NO:3) and EBER1310 (5′-[…]) (SEQ ID NO:4) (FIG. 1), which included BamHI restriction sites. PCR product was cloned into the BamHI site of pAcGP67B (Pharmingen). An expression construct (pVL-β3Gal-T5-full) designed to encode the full coding sequence (from first ATG, FIG. 1) was prepared by PCR with P1 genomic DNA using the primer pair EBER1309 (5′-[…]) (SEQ ID NO:5) and EBER1310. This PCR product was cloned into the BamHI site of pVL1193 (Pharmingen). Both soluble and full length constructs were fully sequenced to confirm fidelity. Plasmids pAcGP67-β3GalT5-sol and pVL-β3Gal-T5-full were co-transfected with Baculo-Gold™ DNA (Pharmingen) as described previously (Bennett, E. P., Hassan, H. and Clausen, H. cDNA cloning and expression of a novel human UDP-N-acetyl-alpha-D-galactosamine. Polypeptide N-acetyl-galactosaminyl-transferase, GalNAc-T3. J. Biol. Chem. 271:17006-17012, 1996). Recombinant Baculo-virus were obtained after two successive amplifications in Sf9 cells grown in serum-containing medium, and titers of virus were estimated by titration in 24-well plates with monitoring of enzyme activities. […] Polypeptide N-acetyl-galactosaminyl-transferase, GalNAc-T3. J. Biol. Chem. 271:17006-17012, 1996). For large scale expression amplified virus was used to infect High Five™ cells grown in serum-free media (Invitrogen) in upright roller bottles shaking at 140 rpm and 27° C.
(§2) The kinetic properties were determined with partially purified, secreted forms of the enzymes. Semipurification of enzymes from serum-free medium of infected High-Five™ cells was performed by sequential Amberlite, DEAE-Sephacel and 5-Sepharose chromatography as described previously (Wandall, H. H., Hassan, H., Mirgorodskaya, E., et al. Substrate specificities of three. members of the human UDP-N-acetyl-alpha-D-galactosamine:Polypeptide Nacetylgalactosaminyltransferase family, GalNAc-T1, -T2, and -T3. J. Biol. Chem. 272:23503-23514, 1997). Comparisons of enzymes were performed relatively to the activity obtained with βGlcNAc-Bz1 (Tables II and III). Full length enzymes were assayed with 1% Triton CF54 homogenates of washed cells. Enzyme assays were performed in 50 μl total reaction mixtures containing 25 mM Cacodylate (pH 7.5), 10 mM MnCl2, 0.25% Triton X-100, 100 μM UDP-[^14C]-Gal (2,600 cpm/nmol) (Amersham), and varying concentrations of acceptor substrates (Sigma) (see Table I for structures). Reaction products were quantified by Dowex-1 chromatography. […] The transfer of Gal was evaluated after acid precipitation by filtration through Whatman GF/C glass fibre filters. […] Assays with glycolipid acceptors were conducted as previously described (Holmes, E. H. Characterization and membrane organization of beta 1-3- and beta 1-4-galactosyltransferases from human colonic adenocarcinoma cell lines Cob 205 and SW403: basis for preferential synthesis of type 1 chain lacto-series carbohydrate structures. Arch Biochem Biophys 270:630-646, 1989) in reaction mixtures containing 2.5 μmol HEPES buffer, pH 7.2, μmol MnCl2, 100 μg taurodeoxycholate or Triton CF-54, 20 μg acceptor glycolipid, 15 nmol UDP-[^14C]-galactose (13,000 cpm/nmol) and enzyme in a total volume of 100 μl. Conditions for incubation and product isolation were as previously described (Id.).

β4Gal-T2 = molecular target: T3, β4Gal-T2 (Homo sapiens, UniProt O60909); assay: Galactosyltransferase assay, recombinant β4Gal-T2, saccharide acceptors; assay type: biochemical
T3 construct: The kinetic properties were determined with partially purified, secreted forms of the enzymes; made in house; host or cells: baculovirus; insect cells (Sf9 / High Five)
T3 sequence (O60909 37-372 limits assumed): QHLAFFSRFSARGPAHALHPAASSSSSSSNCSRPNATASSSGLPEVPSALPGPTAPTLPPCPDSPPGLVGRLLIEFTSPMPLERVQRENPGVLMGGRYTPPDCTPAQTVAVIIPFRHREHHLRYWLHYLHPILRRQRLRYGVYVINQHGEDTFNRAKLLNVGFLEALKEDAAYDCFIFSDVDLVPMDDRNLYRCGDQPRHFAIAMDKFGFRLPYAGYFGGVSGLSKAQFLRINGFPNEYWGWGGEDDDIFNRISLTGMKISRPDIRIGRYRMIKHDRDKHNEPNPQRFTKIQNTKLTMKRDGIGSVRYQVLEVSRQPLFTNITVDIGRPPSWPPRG
Description: as §1, §2

[1] = system: porcine tracheal β3Gal-transferase activity; settings: acceptor substrate; read-out: apparent Km, porcine β3Gal-transferase activity; cited from earlier work

Row | SMILES | β3Gal-T1 activity with β-D-GlcNAc-Bzl (Table III) (β3Gal-T1; β-D-GlcNAc-Bzl at 80 mM) [nmol/min] | β3Gal-T1 activity with βGlcNAc-Bzl (β3Gal-T1; β-D-GlcNAc-Bzl at 80 mM) [nmol/min] | β4Gal-T3 activity with βGlcNAc-Bzl (β4Gal-T3; β-D-GlcNAc-Bzl at 2 mM) [nmol/min] | β4Gal-T2 activity with βGlcNAc-Bzl (β4Gal-T2; β-D-GlcNAc-Bzl at 0.25 mM) [nmol/min] | β3Gal-T1 activity, acceptor 0.2 mM (β3Gal-T1) [nmol/min] | β3Gal-T1 ratio to value with βGlcNAc-Bzl, acceptor 0.2 mM (β3Gal-T1) | β3Gal-T1 activity, acceptor 2 mM (β3Gal-T1) [nmol/min] | β3Gal-T1 ratio to value with βGlcNAc-Bzl, acceptor 2 mM (β3Gal-T1) | Km [1] [µM] | β4Gal-T3 activity, acceptor 0.2 mM (β4Gal-T3; 0.2 mM) [nmol/min] | β4Gal-T3 ratio to value with βGlcNAc-Bzl, acceptor 0.2 mM (β4Gal-T3; 0.2 mM) | β4Gal-T3 activity, acceptor 2 mM (β4Gal-T3; 2 mM) [nmol/min] | β4Gal-T3 ratio to value with βGlcNAc-Bzl, acceptor 2 mM (β4Gal-T3; 2 mM) | β4Gal-T2 activity, acceptor 0.2 mM (β4Gal-T2) [nmol/min] | β4Gal-T2 ratio to value with βGlcNAc-Bzl, acceptor 0.2 mM (β4Gal-T2) | β4Gal-T2 activity, acceptor 2 mM (β4Gal-T2; 2 mM) [nmol/min] | β4Gal-T2 ratio to value with βGlcNAc-Bzl, acceptor 2 mM (β4Gal-T2; 2 mM)
1 | CC(=O)N[C@H]1[C@H](OCc2ccccc2)O[C@H](CO)[C@@H](O)[C@@H]1O [β-D-GlcNAc-Bzl] | 0.03 | 0.03 | 0.03 | 0.03 |  |  |  |  |  |  |  |  |  |  |  |  | 
2 | CC(=O)NC1C(OC2C(O)C(CO)OC(Oc3ccc([N+](=O)[O-])cc3)C2NC(C)=O)OC(CO)C(O)C1O [β-D-GlcNAc-(1–3)-α-D-GalNAc-p-Nph] |  |  |  |  | 0.0 | (0.0) | 0.0 | (0.0) | 2400 | 0.1 | (0.3) | 0.03 | (1.0) | 0.2 | (0.6) | 0.01 | (0.3)
3 | CC(=O)N[C@H]1[C@H](OC[C@H]2O[C@H](Oc3ccc([N+](=O)[O-])cc3)[C@H](NC(C)=O)[C@@H](O[C@@H]3O[C@H](CO)[C@H](O)[C@H](O)[C@H]3O)[C@H]2O)O[C@H](CO)[C@@H](O)[C@@H]1O [βGlcNAc(1,6)[βGal(1,3)]αGalNAc-p-Nph] |  |  |  |  | 0.0 | (0.0) | 0.0 | (0.0) |  |  |  |  |  | 0.03 | (1.0) |  | 
